What all share (format): cell-based, human
In one assay the test system is UOCB1 B-ALL cell line. The experiment in a line: Cytotoxicity assay, UOCB1. The following applies: four days in culture, Alamar blue assay or automated microscopy, ± SD, three experiments. Summed up:
(§1)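 Cells (1×10^4/well) exposed to inhibitor, 1×10^−6 to 10 µM final, in triplicate for 4 days in Opti-MEM with 10% FBS at 37°C. Survival read by Alamar blue absorbance (570–620 nm) or bright-field direct cell counting, expressed as percent of vehicle (DMSO) control.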

A further assay deals with Nalm6 B-ALL cell line. The experiment in a line: Cytotoxicity assay, Nalm6. The note with it: four days in culture, Alamar blue assay or automated microscopy, ± SD, three experiments. The procedure, abridged: as §1
(Alamar Blue is a resazurin reagent that responds to reducing activity.)

Another assay concerns Molm13 AML cell line. The experiment in a line: Cytotoxicity assay, Molm13. The following applies: four days in culture, Alamar blue assay or automated microscopy, ± SD, three experiments. The procedure, abridged:
as §1

In a further assay the test system is Normal Lymphocytes. The assay is described as follows: Cytotoxicity assay, normal lymphocytes. The note with it: normal lymphocytes (control for non-leukemia cytotoxicity), four days in culture, ± SD, three experiments.
A further assay deals with NB4 APML cell line. The experiment in a line: Cytotoxicity assay, NB4. The following applies: four days in culture, Alamar blue assay or automated microscopy, ± SD, three experiments. The procedure, abridged: as §1
The subject of the next assay is HL-60 APML cell line. The assay is described as follows: Cytotoxicity assay, HL-60. The note with it: APML cell line HL-60, four days in culture, Alamar blue assay or automated microscopy, ± SD, three experiments. Summed up: as §1
The subject of assay [1] is Patient #2 relapsed AML primary leukemia cells. The experiment in a line: Cytotoxicity assay, primary sample Patient #2. The following applies: four days in culture, Alamar blue assay or automated microscopy, one complete study. The procedure, abridged:
(§2)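 Ficoll-isolated primary leukemic white cells (1×10^4 per well) in Opti-MEM exposed in triplicate to Aurora kinase inhibitors at 1×10^−6 to 10 µM or DMSO for 4 days. Survival measured by Alamar blue absorbance (570–620 nm) or bright-field direct cell counting, as percent of vehicle control.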

A further assay concerns TIB-202 AML cell line. The assay is described as follows: Cytotoxicity assay, TIB-202. The note with it: AML cell line TIB-202, four days in culture, Alamar blue assay or automated microscopy, ± SD, three experiments. The procedure, abridged: as §1
In the next assay the test system is C1 B-ALL cell line. The experiment in a line: Cytotoxicity assay, C1. The note with it: four days in culture, Alamar blue assay or automated microscopy, ± SD, three experiments. The procedure, abridged:
as §1

Assay [2] deals with Patient #4 infant leukemia primary cells. The experiment in a line: Cytotoxicity assay, primary sample Patient #4. The following applies: four days in culture, Alamar blue assay or automated microscopy, one complete study. The procedure, abridged: as §2
In a further assay the test system is CEM T-ALL cell line. The assay is described as follows: Cytotoxicity assay, CEM. The note with it: four days in culture, Alamar blue assay or automated microscopy, ± SD, three experiments. The procedure, abridged: as §1
The test system of assay [3] is Patient #1 B-ALL primary leukemia cells. The assay is described as follows: Cytotoxicity assay, primary sample Patient #1. The note with it: four days in culture, Alamar blue assay or automated microscopy, one complete study. Summed up:
as §2

Assay [4] relates to normal cells versus leukemia cell lines. The assay is described as follows: Comparison of cytotoxicity IC50 values, normal cells versus leukemia cell lines. The note with it: normal lymphocytes and bone marrow stroma versus leukemia cell lines of Table 2.

What is called IC50 is the concentration that gives 50% inhibition. A low value points to inhibition by little substance. With `CCN1CCN(C(=O)Cc2ccc(Nc3ncc(F)c(Nc4ccc(C(=O)Nc5ccccc5Cl)cc4)n3)cc2)CC1` [Aurora A Inhibitor I], the half-maximal inhibitory concentration (IC50) is 20 ± 9 nM in the assay on UOCB1 B-ALL cell line; 400 ± 80 nM in the assay on Nalm6 B-ALL cell line; 2000 ± 1000 nM with Molm13 AML cell line; 3000 ± 500 nM in the assay with Normal Lymphocytes; 700 ± 50 nM in the assay on NB4 APML cell line; 2000 ± 1000 nM with HL-60 APML cell line. Further, the IC50 worked out at 1000 nM in [1]; 5 ± 2 nM in the assay with TIB-202 AML cell line; 900 ± 200 nM with C1 B-ALL cell line; 8000 nM in assay [2]; 300 ± 200 nM in the assay on CEM T-ALL cell line; 800 nM in [3]. Also, in assay [4], the “IC50 values for the normal cells compared with IC50 values for the leukemia cell lines (potential therapeutic window)” value is recorded as “lower than the IC50 values for the normal cells, but not as pronounced”.

With `CCS(=O)(=O)Nc1ccc2c(c1)/C(=C(/Nc1ccc(CN3CCCCC3)cc1)c1ccccc1)C(=O)N2` [Hesperadin], the IC50 was below 0.001 nM in the assay on UOCB1 B-ALL cell line (Homo sapiens, UoC-B1, 96 h); 0.004 nM in the assay on Nalm6 B-ALL cell line (Homo sapiens, NALM-6, 96 h); 0.3 nM in the assay with Molm13 AML cell line (Homo sapiens, MOLM-13, 96 h); 2000 ± 1000 nM in the assay with Normal Lymphocytes (Homo sapiens, Lymphocyte, 96 h); 4 ± 1 nM in the assay on NB4 APML cell line (Homo sapiens, 96 h); 6 ± 3 nM in the assay on HL-60 APML cell line (Homo sapiens, 96 h). The IC50 in [1] (Homo sapiens, 96 h) is 0.3 nM; in the assay on TIB-202 AML cell line (Homo sapiens, 96 h), 0.003 nM; in the assay on C1 B-ALL cell line (Homo sapiens, 96 h) it was 0.06 nM; in assay [2] (Homo sapiens, 96 h), 2000 nM; in the assay with CEM T-ALL cell line (Homo sapiens, 96 h), below 0.001 nM; in assay [3] (Homo sapiens, 96 h), 0.04 nM. Further, the “IC50 values for the normal cells compared with IC50 values for the leukemia cell lines (potential therapeutic window)” value in [4] is listed as “higher than the IC50 values for the leukemia cell lines”.

Consider `O=C(Nc1c[nH]nc1-c1nc2ccc(CN3CCOCC3)cc2[nH]1)NC1CC1` [AT9283], for which the IC50 was 0.08 nM with UOCB1 B-ALL cell line (Homo sapiens, UoC-B1, 96 h); 6 ± 3 nM in the assay with Nalm6 B-ALL cell line (Homo sapiens, NALM-6, 96 h); 5 ± 3 nM with Molm13 AML cell line (Homo sapiens, MOLM-13, 96 h); 9000 ± 1000 nM in the assay on Normal Lymphocytes (Homo sapiens, Lymphocyte, 96 h); 60 ± 30 nM in the assay with NB4 APML cell line (Homo sapiens, 96 h); 50 ± 20 nM with HL-60 APML cell line (Homo sapiens, 96 h). The IC50 in assay [1] (Homo sapiens, 96 h) was determined as 80 nM; in the assay with TIB-202 AML cell line (Homo sapiens, 96 h) it was 800 ± 200 nM; with C1 B-ALL cell line (Homo sapiens, 96 h), 0.6 nM; in assay [2] (Homo sapiens, 96 h), 5000 nM; in the assay on CEM T-ALL cell line (Homo sapiens, 96 h) it was 0.7 nM; in assay [3] (Homo sapiens, 96 h), 3 nM. In addition, the “IC50 values for the normal cells compared with IC50 values for the leukemia cell lines (potential therapeutic window)” value in [4] was “higher than the IC50 values for the leukemia cell lines”.

The record behind these values is publication PMC4105567, “Aurora Kinases as Druggable Targets in Pediatric Leukemia: Heterogeneity in Target Modulation Activities and Cytotoxicity by Diverse Novel Therapeutic Agents” (PLoS ONE, 2014).
